Experiments:
Format in all cases: cell-based
Proteus vulgaris = assay: MIC against Gram-negative bacteria: Proteus vulgaris; conditions: for MIC P. vulgaris / MIC against P. vulgaris: 5×10^5 CFU/mL
Procedure, shortened: (§1)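 Bacteria grown in LB at 37° C to McFarland 0.5, resuspended and seeded at 5×10^5 CFU/mL in 96-well plates. Purified human EGF-domain proteins two-fold serially diluted, triplicate wells; cultured at 37° C, shaking 175 rpm. MIC = lowest protein concentration with no growth.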

Serratia marcescens = assay: MIC against Gram-negative bacteria: Serratia marcescens; conditions: for MIC S. marcescens / MIC against S. marcescens: 5×10^5 CFU/mL
Procedure, shortened: as §1

Citrobacter diversus = assay: MIC against Gram-negative bacteria: Citrobacter diversus; conditions: for MIC C. diversus / MIC against C. diversus: 5×10^5 CFU/mL
Procedure, shortened: as §1

Proteus mirabilis = assay: MIC against Gram-negative bacteria: Proteus mirabilis; conditions: for MIC P. mirabilis / MIC against P. mirabilis: 5×10^5 CFU/mL
Procedure, shortened: as §1

Moraxella catarrhalis = assay: MIC against Gram-negative bacteria: Moraxella catarrhalis; conditions: for MIC M. catarrhalis / MIC against M. catarrhalis: 5×10^5 CFU/mL
Procedure, shortened: as §1

E. coli DH5α = assay: Antibacterial activity: MIC and growth curve against E. coli DH5α in 96-well plate; conditions: minimal inhibitory concentration against E. coli DH5α; 96-well plate, 5×10^5 CFU/mL, 37° C., judged after 8 h
Procedure, shortened: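 MIC taken as lowest protein level with no bacterial growth, tracked by A600 every 30 min during 37 °C, 175 rpm culture. Two-fold protein series 50-12.5 μg/mL final, triplicate wells, against 5×10^5 CFU/mL of LB-washed mid-log cells.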

Aeromonas hydrophila = assay: MIC against Gram-negative bacteria: Aeromonas hydrophila; conditions: for MIC A. hydrophila / MIC against A. hydrophila: 5×10^5 CFU/mL
Procedure, shortened: as §1

Klebsiella pneumonia = assay: MIC against Gram-negative bacteria: Klebsiella pneumonia; conditions: for MIC K. pneumonia / MIC against K. pneumonia: 5×10^5 CFU/mL
Procedure, shortened: as §1

E. coli BL21 = assay: MIC against Gram-negative bacteria: E. coli BL21; conditions: for MIC E. coli BL21 / MIC against E. coli BL21: 5×10^5 CFU/mL
Procedure, shortened: as §1

Pseudomonas aeruginosa = assay: MIC against Gram-negative bacteria: Pseudomonas aeruginosa; conditions: for MIC P. aeruginosa / MIC against P. aeruginosa: 5×10^5 CFU/mL
Procedure, shortened: as §1

Enterobacter cloacae = assay: MIC against Gram-negative bacteria: Enterobacter cloacae; conditions: for MIC E. cloacae / MIC against E. cloacae: 5×10^5 CFU/mL
Procedure, shortened: as §1

[1] = Proteus vulgaris, 10 h cultivation at 37° C.
[2] = Serratia marcescens, 10 h cultivation at 37° C.
[3] = Citrobacter diversus, 10 h cultivation at 37° C.
[4] = Proteus mirabilis, 10 h cultivation at 37° C.
[5] = Moraxella catarrhalis, 10 h cultivation at 37° C.
[6] = Aeromonas hydrophila, 10 h cultivation at 37° C.
[7] = Klebsiella pneumonia, 10 h cultivation at 37° C.
[8] = E. coli BL21, 10 h cultivation at 37° C.
[9] = Pseudomonas aeruginosa, 10 h cultivation at 37° C.
[10] = Enterobacter cloacae, 10 h cultivation at 37° C.
[11] = 10 h cultivation at 37° C., two-fold serial dilution

For “PRT609 (CHCSPVGSLSTQCDSYGRCSCKPGVMGDKCDRCQPGFHSLTEAGCRP; listed as Homo sapiens)”, the “MIC P. vulgaris” value (Proteus vulgaris; 96-well plate, 37° C., 10 h) was 25 µg/mL, the “MIC S. marcescens” value (Serratia marcescens; 96-well plate, 37° C., 10 h) was 12.5 µg/mL and the “MIC C. diversus” value (Citrobacter diversus; 96-well plate, 37° C., 10 h) was 12.5 µg/mL. The “MIC P. mirabilis” value (Proteus mirabilis; 96-well plate, 37° C., 10 h) was 50 µg/mL, the “MIC M. catarrhalis” value (Moraxella catarrhalis; 96-well plate, 37° C., 10 h) was 25 µg/mL and the MIC (E. coli DH5α) was 50 µg/mL. For the same substance, the “MIC A. hydrophila” value (Aeromonas hydrophila; 96-well plate, 37° C., 10 h) was 25 µg/mL, the “MIC K. pneumonia” value (Klebsiella pneumonia; 96-well plate, 37° C., 10 h) was 25 µg/mL and the “MIC E. coli BL21” value (E. coli BL21; 96-well plate, 37° C., 10 h) was 25 µg/mL. The “MIC P. aeruginosa” value (Pseudomonas aeruginosa; 96-well plate, 37° C., 10 h) was 12.5 µg/mL and the “MIC E. cloacae” value (Enterobacter cloacae; 96-well plate, 37° C., 10 h) was 50 µg/mL.

With “PRT544 (CDCGARLCDELTGQCICPPRTIPPDCLLCQPQTFGCHPLVGCEE; listed as Homo sapiens)” the “MIC against P. vulgaris” value (Proteus vulgaris; 96-well plate, 37° C., 10 h) was 12.5 µg/mL, the “MIC against S. marcescens” value (Serratia marcescens; 96-well plate, 37° C., 10 h) was 12.5 µg/mL and the “MIC against C. diversus” value (Citrobacter diversus; 96-well plate, 37° C., 10 h) was 12.5 µg/mL. For the same substance, the “MIC against P. mirabilis” value (Proteus mirabilis; 96-well plate, 37° C., 10 h) was 12.5 µg/mL, the “MIC against M. catarrhalis” value (Moraxella catarrhalis; 96-well plate, 37° C., 10 h) was 12.5 µg/mL and the MIC (E. coli DH5α) was 12.5 µg/mL. For the same substance, the “MIC against A. hydrophila” value (Aeromonas hydrophila; 96-well plate, 37° C., 10 h) was 12.5 µg/mL, the “MIC against K. pneumonia” value (Klebsiella pneumonia; 96-well plate, 37° C., 10 h) was 25 µg/mL and the “MIC against E. coli BL21” value (E. coli BL21; 96-well plate, 37° C., 10 h) was 25 µg/mL. For the same substance, the “MIC against P. aeruginosa” value (Pseudomonas aeruginosa; 96-well plate, 37° C., 10 h) was 12.5 µg/mL and the “MIC against E. cloacae” value (Enterobacter cloacae; 96-well plate, 37° C., 10 h) was 12.5 µg/mL.

For “PRT1493 (QQAECPGGCRNGGFCNERRICECPDGFHGPHCE; listed as Homo sapiens)”, the “MIC against P. vulgaris” value (Proteus vulgaris; [1]) was 25 µg/mL, the “MIC against S. marcescens” value (Serratia marcescens; [2]) was 50 µg/mL and the “MIC against C. diversus” value (Citrobacter diversus; [3]) was 50 µg/mL. The “MIC against P. mirabilis” value (Proteus mirabilis; [4]) was 50 µg/mL, the “MIC against M. catarrhalis” value (Moraxella catarrhalis; [5]) was 25 µg/mL and the MIC (E. coli DH5α) was 100 µg/mL. The “MIC against A. hydrophila” value (Aeromonas hydrophila; [6]) was 50 µg/mL, the “MIC against K. pneumonia” value (Klebsiella pneumonia; [7]) was 12.5 µg/mL and the “MIC against E. coli BL21” value (E. coli BL21; [8]) was 25 µg/mL. For the same substance, the “MIC against P. aeruginosa” value (Pseudomonas aeruginosa; [9]) was 12.5 µg/mL and the “MIC against E. cloacae” value (Enterobacter cloacae; [10]) was 12.5 µg/mL.

In the case of “PRT1277 (ETCAVNNGGCDSKCHDAATGVHCTCPVGFMLQPDRKTCK; listed as Homo sapiens)”, the “MIC against P. vulgaris” value (Proteus vulgaris; Proteus vulgaris, 96-well plate, 37° C., 10 h) is reported as 25 µg/mL, the “MIC against S. marcescens” value (Serratia marcescens; Serratia marcescens, 96-well plate, 37° C., 10 h) is reported as 12.5 µg/mL and the “MIC against C. diversus” value (Citrobacter diversus; Citrobacter diversus, 96-well plate, 37° C., 10 h) is reported as 12.5 µg/mL. For the same substance, the “MIC against P. mirabilis” value (Proteus mirabilis; Proteus mirabilis, 96-well plate, 37° C., 10 h) was 12.5 µg/mL, the “MIC against M. catarrhalis” value (Moraxella catarrhalis; Moraxella catarrhalis, 96-well plate, 37° C., 10 h) was 25 µg/mL and the MIC (E. coli DH5α) was 12.5 µg/mL. For the same substance, the “MIC against A. hydrophila” value (Aeromonas hydrophila; Aeromonas hydrophila, 96-well plate, 37° C., 10 h) was 50 µg/mL, the “MIC against K. pneumonia” value (Klebsiella pneumonia; Klebsiella pneumonia, 96-well plate, 37° C., 10 h) was 50 µg/mL and the “MIC against E. coli BL21” value (E. coli BL21; E. coli BL21, 96-well plate, 37° C., 10 h) was 50 µg/mL. The “MIC against P. aeruginosa” value (Pseudomonas aeruginosa; Pseudomonas aeruginosa, 96-well plate, 37° C., 10 h) was 12.5 µg/mL and the “MIC against E. cloacae” value (Enterobacter cloacae; Enterobacter cloacae, 96-well plate, 37° C., 10 h) was 12.5 µg/mL.

With “PRT1102 (TIGSCGKNSCQHGGICHQDPIYPVCICPAGYAGRFCE; listed as Homo sapiens)” the “MIC P. vulgaris” value (Proteus vulgaris; [11]) was 12.5 µg/mL, the “MIC S. marcescens” value (Serratia marcescens; [11]) was 25 µg/mL and the “MIC C. diversus” value (Citrobacter diversus; [11]) was 12.5 µg/mL. For the same substance, the “MIC P. mirabilis” value (Proteus mirabilis; [11]) was 12.5 µg/mL, the “MIC M. catarrhalis” value (Moraxella catarrhalis; [11]) was 12.5 µg/mL and the MIC (E. coli DH5α) was 12.5 µg/mL. For the same substance, the “MIC A. hydrophila” value (Aeromonas hydrophila; [11]) was 12.5 µg/mL, the “MIC K. pneumonia” value (Klebsiella pneumonia; [11]) was 12.5 µg/mL and the “MIC E. coli BL21” value (E. coli BL21; [11]) was 12.5 µg/mL. The “MIC P. aeruginosa” value (Pseudomonas aeruginosa; [11]) was 12.5 µg/mL and the “MIC E. cloacae” value (Enterobacter cloacae; [11]) was 12.5 µg/mL.

Substance “PRT1031 (MCVTYHNGTGYCKCPEGFLGEYCQ; listed as Homo sapiens)” has an MIC (Proteus vulgaris; P. vulgaris, 10 h cultivation at 37° C.) of 50 µg/mL, an MIC (Serratia marcescens; S. marcescens, 10 h cultivation at 37° C.) of 12.5 µg/mL and an MIC (Citrobacter diversus; C. diversus, 10 h cultivation at 37° C.) of 25 µg/mL. It also gave an MIC (Proteus mirabilis; P. mirabilis, 10 h cultivation at 37° C.) of 12.5 µg/mL, an MIC (Moraxella catarrhalis; M. catarrhalis, 10 h cultivation at 37° C.) of 12.5 µg/mL and an MIC (E. coli DH5α) of 12.5 µg/mL. For the same substance, the MIC (Aeromonas hydrophila; A. hydrophila, 10 h cultivation at 37° C.) was 50 µg/mL, the MIC (Klebsiella pneumonia; K. pneumonia, 10 h cultivation at 37° C.) was 50 µg/mL and the MIC (E. coli BL21; [8]) was 50 µg/mL. The MIC (Pseudomonas aeruginosa; P. aeruginosa, 10 h cultivation at 37° C.) was 12.5 µg/mL and the MIC (Enterobacter cloacae; E. cloacae, 10 h cultivation at 37° C.) was 12.5 µg/mL.

With “PRT1346 (EVNECQSNPCLNNAVCEDQVGGFLCKCPPGFLGTRCG; listed as Homo sapiens)” the “MIC against P. vulgaris” value (Proteus vulgaris; [1]) was 50 µg/mL, the “MIC against S. marcescens” value (Serratia marcescens; [2]) was 25 µg/mL and the “MIC against C. diversus” value (Citrobacter diversus; [3]) was 25 µg/mL. The “MIC against P. mirabilis” value (Proteus mirabilis; [4]) was 25 µg/mL, the “MIC against M. catarrhalis” value (Moraxella catarrhalis; [5]) was 12.5 µg/mL and the MIC (E. coli DH5α) was 12.5 µg/mL. For the same substance, the “MIC against A. hydrophila” value (Aeromonas hydrophila; [6]) was 50 µg/mL, the “MIC against K. pneumonia” value (Klebsiella pneumonia; [7]) was 25 µg/mL and the “MIC against E. coli BL21” value (E. coli BL21; [8]) was 25 µg/mL. The “MIC against P. aeruginosa” value (Pseudomonas aeruginosa; [9]) was 50 µg/mL and the “MIC against E. cloacae” value (Enterobacter cloacae; [10]) was 12.5 µg/mL.
